This is an account of results in PubChem BioAssay AID248 (DTP/NCI, 2004).

“And” between values parts separate entries of the source, which are not always exact repeats. Equal values may be shown once. Inconclusive results and toxic doses are left out.

This experiment deals with L1210 leukemia ip in BDF1 mice, survival T/C. Briefly: NCI In Vivo Anticancer Drug Screen. Data for tumor model L1210 Leukemia (intraperitoneal) in B6D2F1 (BDF1) mice. Conditions: endpoint: mean survival time, higher = longer survival. The procedure, abridged: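 Tumor cells were implanted, animals were treated, and survival was followed. The result divides the treated measurement by the vehicle-control measurement.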

Where [1] appears, read: dose: 100.0 mg/kg/injection, schedule: Q01DX009 (ip), vehicle: Klucel (hydroxypropylcellulose) (HPC).
Where [2] appears, read: dose: 200.0 mg/kg/injection, schedule: Q01DX009 (ip), vehicle: Klucel (hydroxypropylcellulose) (HPC).
[3] abbreviates: dose: 400.0 mg/kg/injection, schedule: Q01DX009 (ip), vehicle: Klucel (hydroxypropylcellulose) (HPC).
The mark [4] stands for this setting: dose: 100.0 mg/kg/injection, schedule: Q01DX009 (ip), vehicle: saline with Tween-80.
[5] abbreviates: dose: 100.0 mg/kg/injection, schedule: Q04DX003 (ip), vehicle: saline with Tween-80.
The mark [6] stands for this setting: dose: 200.0 mg/kg/injection, schedule: Q01DX009 (ip), vehicle: saline with Tween-80.
[7] abbreviates: dose: 200.0 mg/kg/injection, schedule: Q04DX003 (ip), vehicle: saline with Tween-80.
The mark [8] stands for this setting: dose: 400.0 mg/kg/injection, schedule: Q01DX009 (ip), vehicle: saline with Tween-80.
Setting [9] is: dose: 400.0 mg/kg/injection, schedule: Q04DX003 (ip), vehicle: saline with Tween-80.
Setting [10] is: dose: 50.0 mg/kg/injection, schedule: Q01DX009 (ip), vehicle: saline with Tween-80.
[11] abbreviates: dose: 100.0 mg/kg/injection, schedule: Q04DX003 (ip), vehicle: Klucel (hydroxypropylcellulose) (HPC).
Where [12] appears, read: dose: 200.0 mg/kg/injection, schedule: Q04DX003 (ip), vehicle: Klucel (hydroxypropylcellulose) (HPC).
Setting [13] is: dose: 400.0 mg/kg/injection, schedule: Q04DX003 (ip), vehicle: Klucel (hydroxypropylcellulose) (HPC).

As for `Cc1ccc(N2C(=O)CC(N3CCCCC3)C2=O)cc1` (stereo not drawn), the T/C was 102 % of control under setting [1], 96 % of control under setting [2] and 91 % of control under setting [3].

As to `CC(=O)Oc1cc2ccccc2cc1C(C)C`, the T/C runs as follows: under setting [4], 98 % of control; under setting [5], 103 % of control; under setting [6], 98 % of control; under setting [7], 95 % of control; under setting [8], 88 % of control; under setting [9], 90 % of control.

Turning to `CC(CN1c2ccccc2Sc2ccc(Cl)cc21)N(C)CCCl` (stereo not drawn), the T/C (dose: 75.0 mg/kg/injection, schedule: Q01DX001 (ip), vehicle: carboxymethylcellulose (CMC)) is 106 % of control and 114 % of control.

`O=C(O)CCC(=O)/C=C1/Nc2ccccc2C1=O`: the T/C by setting is: under setting [5], 88 % of control; under setting [7], 90 % of control; under setting [9], 88 % of control.

As for `CCCCCCOC(=O)C(O)c1ccccc1` (stereo not drawn), the T/C runs as follows: under setting [10], 95 % of control; under setting [4], 98 % of control; under setting [6], 95 % of control.

Turning to `O=C1OCC/C1=C/OC(=O)c1ccccc1`, the T/C (dose: 100.0 mg/kg/injection, schedule: Q04DX002 (ip), vehicle: Klucel (hydroxypropylcellulose) (HPC)) is 97 % of control and the T/C (dose: 200.0 mg/kg/injection, schedule: Q04DX002 (ip), vehicle: Klucel (hydroxypropylcellulose) (HPC)) was 87 % of control.

For `CCCCOC1CCS(=O)(=O)C1` (stereo not drawn), the T/C (dose: 100.0 mg/kg/injection, schedule: Q04DX003 (ip), vehicle: other) was 101 % of control; the T/C (dose: 200.0 mg/kg/injection, schedule: Q04DX003 (ip), vehicle: other) was 101 % of control; the T/C (dose: 400.0 mg/kg/injection, schedule: Q04DX003 (ip), vehicle: other) was 94 % of control.

`NC(=S)N/N=C/c1ncccc1O`: the T/C is 111 % of control (dose: 1.8 mg/kg/injection, schedule: Q01DX Z (ip), vehicle: saline); 113 % of control (dose: 2.7 mg/kg/injection, schedule: Q01DX Z (ip), vehicle: saline); 118 % of control (dose: 4.1 mg/kg/injection, schedule: Q01DX Z (ip), vehicle: saline); 122 % of control (dose: 6.25 mg/kg/injection, schedule: Q01DX015 (ip), vehicle: saline); 120 % of control (dose: 6.25 mg/kg/injection, schedule: Q01DX Z (ip), vehicle: saline); 153 % of control (dose: 12.5 mg/kg/injection, schedule: Q01DX Z (ip), vehicle: saline). Also, the T/C by setting is: (dose: 21.0 mg/kg/injection, schedule: Q03HX032 (ip), vehicle: saline with Tween-80) 119 % of control; (dose: 25.0 mg/kg/injection, schedule: Q01DX015 (ip), vehicle: saline) 150 % of control; (dose: 25.0 mg/kg/injection, schedule: Q01DX Z (ip), vehicle: saline) 159 % of control; (dose: 47.0 mg/kg/injection, schedule: Q03HX032 (ip), vehicle: saline with Tween-80) 120 % of control; (dose: 50.0 mg/kg/injection, schedule: Q01DX Z (ip), vehicle: saline) 170 % of control; (dose: 100.0 mg/kg/injection, schedule: Q01DX015 (ip), vehicle: saline) 111 % of control. For the same molecule, the T/C (dose: 100.0 mg/kg/injection, schedule: Q01DX Z (ip), vehicle: saline) was 165 % of control; the T/C (dose: 100.0 mg/kg/injection, schedule: Q01DX Z (oral), vehicle: saline) is 112 % of control; the T/C (dose: 150.0 mg/kg/injection, schedule: Q01DX Z (ip), vehicle: saline) was 153 % of control; the T/C (dose: 200.0 mg/kg/injection, schedule: Q01DX015 (ip), vehicle: saline) is 94 % of control; the T/C (dose: 335.0 mg/kg/injection, schedule: Q01DX Z (ip), vehicle: saline) was 118 % of control; the T/C (dose: 335.0 mg/kg/injection, schedule: Q01DX Z (oral), vehicle: saline) was 115 % of control. In addition, the T/C (dose: 400.0 mg/kg/injection, schedule: Q01DX015 (ip), vehicle: saline) is 90 % of control.

In the case of `CCOC(=O)C1(Cc2ccccc2)CCCC1=O` (stereo not drawn), the T/C (dose: 100.0 mg/kg/injection, schedule: Q01DX001 (ip), vehicle: carboxymethylcellulose (CMC)) is 107 % of control; the T/C (dose: 200.0 mg/kg/injection, schedule: Q01DX001 (ip), vehicle: carboxymethylcellulose (CMC)) was 96 % of control; the T/C (dose: 400.0 mg/kg/injection, schedule: Q01DX001 (ip), vehicle: carboxymethylcellulose (CMC)) was 96 % of control.

Consider `CC(C)(CCl)COS(=O)(=O)c1ccc(Br)cc1`, for which the T/C is 90 % of control under setting [10] and 90 % of control under setting [4].

For the molecule `CCOC(=S)Nc1ccccc1[N+](=O)[O-]`, the T/C runs as follows: (dose: 100.0 mg/kg/injection, schedule: Q04DX002 (ip), vehicle: gum acacia) 102 % of control; (dose: 200.0 mg/kg/injection, schedule: Q04DX002 (ip), vehicle: gum acacia) 105 % of control; (dose: 400.0 mg/kg/injection, schedule: Q04DX002 (ip), vehicle: gum acacia) 102 % of control.

As for `CC(=O)c1c(C)cc(C)c(CC(=O)O)c1C`, the T/C reads like this: (dose: 75.0 mg/kg/injection, schedule: Q01DX009 (ip), vehicle: Klucel (hydroxypropylcellulose) (HPC)) 104 % of control; (dose: 150.0 mg/kg/injection, schedule: Q01DX009 (ip), vehicle: Klucel (hydroxypropylcellulose) (HPC)) 97 % of control; (dose: 300.0 mg/kg/injection, schedule: Q01DX009 (ip), vehicle: Klucel (hydroxypropylcellulose) (HPC)) 93 % of control.

`CC(=O)CC(=O)Nc1ccccc1C`: the T/C (dose: 50.0 mg/kg/injection, schedule: Q01DX001 (ip), vehicle: Klucel (hydroxypropylcellulose) (HPC)) is 100 % of control; the T/C (dose: 100.0 mg/kg/injection, schedule: Q01DX001 (ip), vehicle: Klucel (hydroxypropylcellulose) (HPC)) is 106 % of control; the T/C (dose: 200.0 mg/kg/injection, schedule: Q01DX001 (ip), vehicle: Klucel (hydroxypropylcellulose) (HPC)) was 106 % of control.

On to `CC1(C)N=C(N)N=C(N)N1c1cccc(C#N)c1`, for which the T/C (dose: 7.0 mg/kg/injection, schedule: Q01DX009 (ip), vehicle: saline) is 118 % of control; the T/C (dose: 10.0 mg/kg/injection, schedule: Q01DX009 (ip), vehicle: saline) was 116 % of control; the T/C (dose: 16.0 mg/kg/injection, schedule: Q01DX009 (ip), vehicle: saline) was 113 % of control; the T/C (dose: 17.0 mg/kg/injection, schedule: Q01DX009 (ip), vehicle: saline) is 108 % of control; the T/C (dose: 25.0 mg/kg/injection, schedule: Q01DX009 (ip), vehicle: saline) is 123 % of control; the T/C (dose: 37.0 mg/kg/injection, schedule: Q01DX009 (ip), vehicle: saline) is 151 % of control and 161 % of control. The T/C (dose: 37.5 mg/kg/injection, schedule: Q01DX009 (ip), vehicle: saline) is 120 % of control; the T/C (dose: 56.0 mg/kg/injection, schedule: Q01DX009 (ip), vehicle: saline) was 172 % of control; the T/C (dose: 84.5 mg/kg/injection, schedule: Q01DX009 (ip), vehicle: saline) was 150 % of control.

Regarding `Cc1ccc2nc(-c3ccc(F)cc3)cc(C(=O)O)c2c1`, the T/C is 92 % of control (dose: 100.0 mg/kg/injection, schedule: Q04DX003 (ip), vehicle: saline); 89 % of control (dose: 200.0 mg/kg/injection, schedule: Q04DX003 (ip), vehicle: saline); 95 % of control (dose: 400.0 mg/kg/injection, schedule: Q04DX003 (ip), vehicle: saline).

As to `COc1ccc(/C=C/C(=O)c2ccc3c(c2)OCO3)cc1OC`, the T/C runs as follows: under setting [4], 101 % of control; under setting [6], 94 % of control; under setting [8], 95 % of control.

In the case of `c1ccc2c(c1)CCc1cc3c(nc1-2)-c1ccccc1CC3`, the T/C by setting is: under setting [1], 97 % of control; under setting [11], 100 % of control; under setting [2], 98 % of control; under setting [12], 100 % of control; under setting [3], 95 % of control; under setting [13], 94 % of control.

Turning to `Nc1cccc2c1C(=O)c1c(c(O)c3ccccc3c1O)C2=O`, the T/C reads like this: under setting [11], 100 % of control; under setting [12], 96 % of control; under setting [13], 96 % of control.
